# Laboratory results reported in patent US6875748B2, “Compositions and methods for in vivo delivery of polynucleotide-based therapeutics” (Vical Incorporated, priority 2000, dated 2005).
# Read-outs that look alike come from different tables or passages of the source.
# How the values were obtained:
# mouse quadriceps muscle [1] = experiment: Luciferase expression in mouse quadriceps muscle after i.m. injection of plasmid VR1255 with auxiliary agents; details: for ability to enhance in vivo expression relative to identical composition without the compound: mouse; for luciferase expression versus 150 mM sodium phosphate alone: day 7
# pH of the salt solutions = type: physicochemical
# mouse quadriceps muscle [2] = experiment: Luciferase expression in mouse quadriceps muscle 7 days after i.m. injection of plasmid VR1223 in salt solutions; type: in vivo; set-up: lux: unit: ng/muscle; details: for ng Lux/Muscle: 50 μg VR1223 in 50 μl; for ng Lux/Muscle / Fold Saline: salts at 150 mM, day 7; for luciferase expression compared with saline (words): 150 mM solutions; for luciferase expression compared with saline (words) / luciferase expression, fold over saline: VR1223, day 7; for lux: 7-day luciferase expression, VR1223; for Fold Saline: relative to saline
# [3] = Osmolarity of the salt solutions; type: physicochemical; details: 150 mM unless otherwise indicated
# [4] = 150 mM unless otherwise indicated
Molecule,ability to enhance in vivo expression relative to identical composition without the compound (mouse quadriceps muscle [1]),pH (pH of the salt solutions; [4]),ng Lux/Muscle (mouse quadriceps muscle [2]) [ng/Muscle],luciferase expression compared with saline (words) (mouse quadriceps muscle [2]),lux (mouse quadriceps muscle [2]; Table III-A),lux (mouse quadriceps muscle [2]; Table III-B),Fold Saline (mouse quadriceps muscle [2]) [Fold],Osm [3] [mmol/kg],further results
polysorbate 40 [Tween-40®],no ability to enhance,,,,,,,,
"C[S+](C)[O-] [DMSO, dimethylsulfoxide]",,,,,,,,,luciferase expression versus 150 mM sodium phosphate alone (mouse quadriceps muscle [1]): significantly increased expression
Calcium Phosphate,,6.0,12,no ability to enhance,12,12,0.1,36,
polyoxyethylene 20 stearyl ether,no ability to enhance,,,,,,,,
Actin,no ability to enhance,,,,,,,,
"CCCCCCCCCCCCOS(=O)(=O)[O-].[Na+] [SDS, sodium dodecyl sulfate]",,,,,,,,,luciferase expression versus 150 mM sodium phosphate alone (mouse quadriceps muscle [1]): significantly increased expression
polyoxyethylene 10 cetyl ether,no ability to enhance,,,,,,,,
[Cl-].[Cl-].[Mg+2] [Magnesium Chloride],,5.5,1,no ability to enhance,1,1,<0.1,360,
OCc1ccccc1 [benzyl alcohol],no ability to enhance,,,,,,,,
O=C([O-])C(=O)[O-].[Na+].[Na+] [Sodium Oxalate],,6.5,15,inhibited luciferase expression,15,15,<0.1,346,luciferase expression compared with saline (words) (mouse quadriceps muscle [2]; listed as 150 mM sodium oxalate): no ability to enhance
CC(=O)C(=O)[O-].[Na+] [Sodium Pyruvate],,6.0,364,increased luciferase expression compared with saline,364,364,3.1,271,
CC(=O)[O-].[Na+] [Sodium Acetate],,6.5,498,increased luciferase expression compared with saline,498,498,4.1,271,
"CCCCCCCCCCCCO[C@@H]1O[C@H](CO)[C@@H](O[C@H]2O[C@H](CO)[C@@H](O)[C@H](O)[C@H]2O)[C@H](O)[C@H]1O [n-Dodecylmaltoside, n-dodecylmaltoside]",no ability to enhance,,,,,,,,
"CCCCCCCC(=O)N(C)C[C@H](O)[C@@H](O)[C@H](O)[C@H](O)CO [MEGA 8, octanyol-N-methyl-glucamide]",no ability to enhance,,,,,,,,
sorbitan monolaurate [SPAN 20],no ability to enhance,,,,,,,,
"O=C(O)CN(CCN(CC(=O)O)CC(=O)O)CC(=O)O [EDTA, ethylenediamine tetraacetic acid]",,,,,,,,,luciferase expression versus 150 mM sodium phosphate alone (mouse quadriceps muscle [1]): significantly increased expression
octyl phenol ethylene oxide condensate with about 7-8 ethylene oxide units [Triton X-114],,,,,,,,,luciferase expression versus 150 mM sodium phosphate alone (mouse quadriceps muscle [1]): significantly increased expression
CCCCCCCCO[C@@H]1O[C@H](CO)[C@@H](O)[C@H](O)[C@H]1O [n-octylglucoside],no ability to enhance,,,,,,,,
"OC[C@H]1O[C@H](OC[C@H]2O[C@H](OC[C@H]3O[C@H](O[C@]4(CO)O[C@H](CO)[C@@H](O)[C@@H]4O)[C@H](O)[C@@H](O)[C@@H]3O)[C@H](O)[C@@H](O)[C@H]2O)[C@H](O)[C@@H](O)[C@H]1O [Stachyose, stachyose]",,,,,,,,,luciferase expression versus 150 mM sodium phosphate alone (mouse quadriceps muscle [1]): significantly increased expression
[Cl-].[K+] [Potassium Chloride],,5.5,124,no ability to enhance,124,124,1.0,280,

Molecule,ability to enhance in vivo expression relative to identical composition without the compound (mouse quadriceps muscle [1]),pH (pH of the salt solutions; [4]),ng Lux/Muscle (mouse quadriceps muscle [2]) [ng/Muscle],luciferase expression compared with saline (words) (mouse quadriceps muscle [2]),lux (mouse quadriceps muscle [2]; Table III-A),lux (mouse quadriceps muscle [2]; Table III-B),Fold Saline (mouse quadriceps muscle [2]) [Fold],Osm [3] [mmol/kg],further results
[Ca+2].[Cl-].[Cl-] [Calcium Chloride],,5.5,0.3,no ability to enhance,0.3,0.3,<0.1,362,
octyl phenol ethylene oxide condensate with about 9 ethylene oxide units [Nonidet P40],,,,,,,,,luciferase expression versus 150 mM sodium phosphate alone (mouse quadriceps muscle [1]): significantly increased expression
"C[C@H](CCC(=O)NCCC[N+](C)(C)CCCS(=O)(=O)[O-])[C@H]1CC[C@H]2[C@@H]3[C@H](O)C[C@@H]4C[C@H](O)CC[C@]4(C)[C@H]3C[C@H](O)[C@]12C [CHAPS, 3[(3-Cholamidopropyl)dimethylammonio]-1-propanesulfonate]",no ability to enhance,,,,,,,,
PEG-40 Stearate [MYRJ 52],no ability to enhance,,,,,,,,
polyoxyethylene sorbitan monooleate [Tween 80],,,,,,,,,luciferase expression versus 150 mM sodium phosphate alone (mouse quadriceps muscle [1]): significantly increased expression
"O=P([O-])([O-])O.[Na+].[Na+] [Sodium dibasic, Na2HPO4]",,8.0,282,only slightly stimulated over saline,282,282,2.4,357,
O=C(O)CN(CCOCCOCCN(CC(=O)O)CC(=O)O)CC(=O)O [EGTA],no ability to enhance,,,,,,,,
[Cl-].[Cl-].[Zn+2] [Zinc Chloride],,5.0,0.1,no ability to enhance,0.1,0.1,<0.1,358,
Macrogol-50 stearate [MYRJ 53],no ability to enhance,,,,,,,,
O=C([O-])O.[Na+] [Sodium Bicarbonate],,9.0,330,increased luciferase expression compared with saline,330,330,2.8,727,"pH (pH of the salt solutions): 9.0; luciferase expression, fold over saline (mouse quadriceps muscle [2]): 2.8 fold"
O=P([O-])([O-])OP(=O)([O-])[O-].[Na+].[Na+].[Na+].[Na+] [Sodium Pyrophosphate],,9.0,,,3,3,,363,
"CCCCCCC(=O)N(C)C[C@H](O)[C@@H](O)[C@H](O)[C@H](O)CO [MEGA 7, heptanoyl-N-methyl-glucamide]",no ability to enhance,,,,,,,,
[Cl][Fe][Cl] [Ferrous Chloride],,5.0,0.0,no ability to enhance,0.0,0.0,<0.1,362,
"O=P([O-])(O)O.[Na+] [Sodium monobasic, NaH2PO4]",,5.5,198,only slightly stimulated over saline,198,198,1.7,277,
"CCCCCCCCCCCCCCCC[N+](C)(C)CCCS(=O)(=O)[O-] [Zwittergent, n-hexadecyl-N,N-dimethyl-3-ammonio-1-propanesulfonate]",no ability to enhance,,,,,,,,
O=P(O)(O)O [Potassium Phosphate],,7.5,449,stimulated expression just as well as solution of 150 mM sodium phosphate,449,449,3.8,323,
"CCCCCCCCC(=O)N(C)C[C@H](O)[C@@H](O)[C@H](O)[C@H](O)CO [MEGA 9, nonanoyl-N-methyl-glucamide]",no ability to enhance,,,,,,,,
polyoxyethylene sorbitan monolaurate [Tween 20],,,,,,,,,luciferase expression versus 150 mM sodium phosphate alone (mouse quadriceps muscle [1]): significantly increased expression
(octyl phenoxy) polyethoxyethanol [IGEPAL CA 630®],,,,,,,,,luciferase expression versus 150 mM sodium phosphate alone (mouse quadriceps muscle [1]): significantly increased expression
O=S(=O)([O-])[O-].[Na+].[Na+] [Sodium Sulfate],,5.5,312,increased luciferase expression compared with saline,312,312,2.6,349,"pH (pH of the salt solutions): 5.5; luciferase expression, fold over saline (mouse quadriceps muscle [2]): 2.6 fold"
